This is an account of results in publication PMC5585240, “NF-κB inhibitors, unique γ-pyranol-γ-lactams with sulfide and sulfoxide moieties from Hawaiian plant Lycopodiella cernua derived fungus Paraphaeosphaeria neglecta FT462” (Scientific Reports, 2017).

Molecules are shown by their SMILES. “Also recorded” adds a separate entry of the source. Like-named read-outs stand apart in the source and are kept apart here.

One may read the IC50 as the concentration needed to halve the response being measured.

The nature of data set [1]: Cytotoxicity under the same conditions as the NF-κB assay. The data set is classed as cell-based. To be noted: human.
In another data set the test system is E. coli JW2496 (∆bamB). Put plainly: Antibacterial microbroth dilution assay. It is filed as cell-based. To be noted: 20 μg/mL (maximum test concentration). The protocol:
MIC values were determined against E. coli JW2496 (∆bamB) and other bacteria using the standard microbroth dilution method exactly as previously described, which is based on the methods by the Clinical and Laboratory Standards Institute[41], [42]. The maximum test concentration used was 20 μg/mL.

Data set [2] is described as follows: Cytotoxicity in the iNOS assay. The following applies: mouse, RAW 264.7 cells. The data set is classed as cell-based.
The subject of another data set is NF-κB. Put plainly: TNF-α-induced NF-κB luciferase reporter assay in human embryonic kidney cells 293. The data set is classed as cell-based. The following applies: 293 cells, 6 h, read-out: NF-κB inhibition IC50. The protocol:
We employed human embryonic kidney cells 293, Panomic for monitoring changes occurring along the NF-κB pathway. Stable constructed cells were seeded into 96-well plates at 20 × 10^3 cells per well. Cells were maintained in Dulbecco’s modified Eagle’s medium (DMEM) (Invitrogen Co.), supplemented with 10% FBS, 100 units/mL penicillin, 100 μg/mL streptomycin, and 2 mM L-glutamine. After 48 h incubation, the medium was replaced and the cells were treated with various concentrations of test substances. TNF-α (human, recombinant, E. coli, Calbiochem) was used as an activator at a concentration of 2 ng/mL (0.14 nM). The plate was incubated for 6 h. Spent medium was discarded, and the cells were washed once with PBS. Cells were lysed using 50 μL (for 96-well plate) of reporter lysis buffer from Promega by incubating for 5 min on a shaker, and stored at −80 °C. The luciferase assay was performed using the Luc assay system from Promega. The gene product, luciferase enzyme, reacts with luciferase substrate, emitting light, which was detected using a luminometer (LUMIstar Galaxy BMG). Data for NF-κB inhibition are expressed as IC50 values (i.e., concentration required to inhibit TNFinduced NF-kB activity by 50%). The known NF-κB inhibitor TPCK was used as a positive control.
In general terms: Reporter assays use an easily measured gene product as a stand-in for the process of interest.

The test system of the next data set is iNOS. Put plainly: Nitric oxide (iNOS) assay in LPS-stimulated RAW 264.7 cells, Griess reagent. It is filed as cell-based. The following applies: Mus musculus, RAW264.7; lipopolysaccharide-stimulated (1 μg/mL, 20 h) RAW 264.7 cells, nitrite; read-out: iNOS inhibition IC50. The protocol:
RAW 264.7 cells (1 × 10^4 cells/well) were seeded and incubated in 96-well culture plates at 37 °C, 5% CO2 in humidified air for 24 h. Then, complete medium was replaced with phenol red-free medium containing various concentrations of the test compounds, followed by LPS stimulation (1 μg/mL) for 20 h. The nitrite released in the culture media was reacted with Griess reagent, and the absorbance was measured at 540 nm. The amount of nitrite was calculated using a standard curve of known nitrite concentration versus absorbance at 540 nm. TPCK was used as a positive control. IC50 values were calculated using Table Curve 2D Windows V4.07 by AISN Software Inc[44].
In general terms: The Griess reaction detects nitrite, a stable product of nitric oxide.

The subject of another data set is STAT3. Set-up: method as in PMID 26107089, PMID 16928075. To be noted: cited from earlier work.
Where [3] appears, read: Homo sapiens, HEK293, TNF-α (2 ng/mL) induced NF-κB activity.

For the compound `CCCCC[C@@H]1OC2=C(C(=O)N(OC)[C@@H]2CSC[C@@H](O)C(=O)O)[C@H](O)[C@@]1(C)O` [Compound 1, Paraphaeosphaeride E], the IC50 at 6 h in data set [1] was over 50 µM. The “inhibition of E. coli JW2496” value in the data set with E. coli JW2496 (∆bamB) is on record as “mildly inhibited”. Also, the IC50 at 20 h in data set [2] was over 50 µM. Moreover, the values for the IC50 in the data set on NF-κB (setting [3]) and in the data set with iNOS were 7.1 µM and 47.9 ± 0.03 µM, respectively.

Take `CCCCC[C@@H]1OC2=C(C(=O)N(OC)[C@@H]2CSC[C@@H](O)C(=O)O)[C@@H](O)[C@@]1(C)O` [Compound 2, Paraphaeosphaeride F]: the IC50 at 6 h in data set [1] was over 50 µM. Also, the IC50 at 20 h in data set [2] was over 50 µM. Besides, in the data set with iNOS, the IC50 came out at 43.2 ± 0.7 µM.

`CCCCC[C@@H]1OC2=C(C(=O)N(OC)[C@@H]2C[S@+]([O-])C[C@@H](O)C(=O)O)[C@H](O)[C@@]1(C)O` [Compound 3, Paraphaeosphaeride G] had an IC50 at 6 h in data set [1] of over 50 µM. This compound showed an IC50 at 20 h in data set [2] of over 50 µM. The IC50 in the data set with NF-κB (setting [3]) is 1.5 µM; in the data set on iNOS, 16.1 ± 6.6 µM.

Take `Cc1ccc(S(=O)(=O)N[C@@H](Cc2ccccc2)C(=O)CCl)cc1` [TPCK, N α-tosyl-l-phenylalanine chloromethyl ketone, reference compound]: the IC50 in the data set on NF-κB (TNF-α (2 ng/mL) induced NF-κB activity) was 4.09 ± 0.12 µM.

For `[H]/N=C(/NC)NCCC[C@H](N)C(=O)O` [l-NMMA, Na-l- monomethyl arginine, reference compound], the IC50 with iNOS came out at […].

With `C=C1C2=C(C(=O)N1OC)[C@H](O)[C@@](C)(O)[C@H](CCCCC)O2` [phaeosphaeride A], the STAT3 inhibition entry in the data set on STAT3 is given as “showed STAT3 inhibition; also recorded: showed STAT3 inhibitory activity”.
